From PMC5224880, “Discovery and Molecular Basis of a Diverse Set of Polycomb Repressive Complex 2 Inhibitors Recognition by EED” (PLoS ONE, 2017)

Tests used:
Assay type in all cases: biochemical
[1] = target: EZH1 (EZH1/EED/SUZ12/RBAP48/AEBP2) (Homo sapiens, UniProt O75530+Q92800); test: HMT panel selectivity: EZH1
From the text: (§1) Note: for EZH2, EZH2/EED/SUZ12/RBAP48/AEBP2 was used in the assay; for EZH1, EZH1/EED/SUZ12/RBAP48/AEBP2 was used in the assay; for MLL, MLL/WDR5/RBBP5/ASH2L/ was use in the assay. a, H3K27me0 peptide was used as substrate for both EZH2 and EZH1 activity; b, H3K27me1 peptide was used as substrate for both EZH2 and EZH1 activity.

[2] = target: T1, NSD2 (Homo sapiens, UniProt O96028); test: HMT panel selectivity: NSD2
T1 sequence (O96028 1-1365): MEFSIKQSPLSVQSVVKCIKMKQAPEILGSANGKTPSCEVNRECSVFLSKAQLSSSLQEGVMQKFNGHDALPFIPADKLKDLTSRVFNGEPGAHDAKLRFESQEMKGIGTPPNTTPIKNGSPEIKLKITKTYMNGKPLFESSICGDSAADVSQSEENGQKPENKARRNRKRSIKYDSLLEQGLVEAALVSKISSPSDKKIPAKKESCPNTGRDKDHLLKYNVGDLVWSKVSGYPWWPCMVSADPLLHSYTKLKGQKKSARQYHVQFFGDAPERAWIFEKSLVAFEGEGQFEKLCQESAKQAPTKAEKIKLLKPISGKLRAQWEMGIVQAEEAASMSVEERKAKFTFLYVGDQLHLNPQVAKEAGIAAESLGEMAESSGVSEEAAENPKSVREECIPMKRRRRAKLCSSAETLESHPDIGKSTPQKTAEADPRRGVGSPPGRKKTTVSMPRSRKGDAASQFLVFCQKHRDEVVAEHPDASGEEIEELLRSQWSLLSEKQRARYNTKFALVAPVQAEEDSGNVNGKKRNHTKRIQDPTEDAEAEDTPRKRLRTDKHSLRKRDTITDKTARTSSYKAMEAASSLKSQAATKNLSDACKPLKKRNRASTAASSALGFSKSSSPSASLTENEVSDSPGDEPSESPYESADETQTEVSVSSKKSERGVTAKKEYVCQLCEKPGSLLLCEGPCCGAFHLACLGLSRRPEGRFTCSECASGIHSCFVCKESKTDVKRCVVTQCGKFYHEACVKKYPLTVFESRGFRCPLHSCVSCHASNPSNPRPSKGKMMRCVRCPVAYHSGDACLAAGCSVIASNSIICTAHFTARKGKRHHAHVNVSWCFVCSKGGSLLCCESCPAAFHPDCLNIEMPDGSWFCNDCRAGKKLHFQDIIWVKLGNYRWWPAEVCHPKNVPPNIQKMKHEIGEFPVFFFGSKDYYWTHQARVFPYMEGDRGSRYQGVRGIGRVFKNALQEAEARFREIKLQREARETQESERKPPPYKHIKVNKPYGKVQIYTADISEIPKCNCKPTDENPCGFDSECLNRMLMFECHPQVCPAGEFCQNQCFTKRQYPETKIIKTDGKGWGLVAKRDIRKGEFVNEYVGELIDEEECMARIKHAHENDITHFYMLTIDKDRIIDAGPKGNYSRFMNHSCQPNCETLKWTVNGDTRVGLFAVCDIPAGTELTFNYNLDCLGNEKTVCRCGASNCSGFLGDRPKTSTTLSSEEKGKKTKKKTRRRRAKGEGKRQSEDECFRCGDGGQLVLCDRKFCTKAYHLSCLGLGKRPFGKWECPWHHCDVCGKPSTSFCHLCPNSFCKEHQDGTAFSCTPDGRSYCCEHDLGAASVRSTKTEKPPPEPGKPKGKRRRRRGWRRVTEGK
Procedure: as §1, with “activity. All HMT reactions were performed as described previously. ref: Proc Natl Acad Sci U S A. 2012 Dec 26;109(52):21360-5.” for “activity.”

[3] = target: T2, CARM1 (Homo sapiens, UniProt Q86X55); test: HMT panel selectivity: CARM1
T2 sequence (Q86X55 1-608): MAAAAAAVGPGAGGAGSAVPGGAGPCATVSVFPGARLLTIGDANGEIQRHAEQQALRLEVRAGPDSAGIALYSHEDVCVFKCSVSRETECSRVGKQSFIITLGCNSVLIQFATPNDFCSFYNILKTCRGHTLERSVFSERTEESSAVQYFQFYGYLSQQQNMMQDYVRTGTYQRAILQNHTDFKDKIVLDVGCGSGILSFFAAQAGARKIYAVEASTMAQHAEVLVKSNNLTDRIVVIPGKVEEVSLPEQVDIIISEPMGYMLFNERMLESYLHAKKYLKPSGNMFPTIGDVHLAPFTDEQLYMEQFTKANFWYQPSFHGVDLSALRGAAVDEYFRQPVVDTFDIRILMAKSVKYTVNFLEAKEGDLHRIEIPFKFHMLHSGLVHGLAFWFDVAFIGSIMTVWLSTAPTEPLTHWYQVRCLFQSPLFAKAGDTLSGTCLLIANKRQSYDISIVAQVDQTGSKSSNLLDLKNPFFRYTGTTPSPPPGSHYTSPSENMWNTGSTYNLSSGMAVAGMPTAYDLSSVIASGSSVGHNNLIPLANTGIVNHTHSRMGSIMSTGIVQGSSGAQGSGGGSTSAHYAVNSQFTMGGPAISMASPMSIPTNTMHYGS
Procedure: as §1, with “activity. All HMT reactions were performed as described previously. ref: Proc Natl Acad Sci U S A. 2012 Dec 26;109(52):21360-5.” for “activity.”

[4] = target: PRMT3 (Homo sapiens, UniProt O60678); test: HMT panel selectivity: PRMT3
Procedure: as §1, with “activity. All HMT reactions were performed as described previously. ref: Proc Natl Acad Sci U S A. 2012 Dec 26;109(52):21360-5.” for “activity.”

[5] = target: T3, SMYD3 (Homo sapiens, UniProt Q9H7B4); test: HMT panel selectivity: SMYD3
T3 sequence (Q9H7B4 1-428): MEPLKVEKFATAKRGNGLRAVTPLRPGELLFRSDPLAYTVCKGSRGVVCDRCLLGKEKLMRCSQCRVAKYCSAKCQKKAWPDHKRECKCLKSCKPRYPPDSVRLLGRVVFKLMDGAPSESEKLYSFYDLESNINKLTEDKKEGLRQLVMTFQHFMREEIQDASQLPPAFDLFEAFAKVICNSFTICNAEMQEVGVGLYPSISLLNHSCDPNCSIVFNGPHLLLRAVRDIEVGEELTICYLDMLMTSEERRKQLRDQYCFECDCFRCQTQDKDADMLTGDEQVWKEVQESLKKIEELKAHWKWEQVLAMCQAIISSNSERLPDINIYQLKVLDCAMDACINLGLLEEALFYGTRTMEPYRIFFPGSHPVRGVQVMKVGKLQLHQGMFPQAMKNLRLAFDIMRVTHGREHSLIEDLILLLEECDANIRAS
Procedure: as §1, with “activity. All HMT reactions were performed as described previously. ref: Proc Natl Acad Sci U S A. 2012 Dec 26;109(52):21360-5.” for “activity.”

[6] = target: ESET (Homo sapiens, UniProt Q15047); test: HMT panel selectivity: ESET
Procedure: as §1, with “activity. All HMT reactions were performed as described previously. ref: Proc Natl Acad Sci U S A. 2012 Dec 26;109(52):21360-5.” for “activity.”

Chain of PRMT3 (O60678 whole entry, species assumed): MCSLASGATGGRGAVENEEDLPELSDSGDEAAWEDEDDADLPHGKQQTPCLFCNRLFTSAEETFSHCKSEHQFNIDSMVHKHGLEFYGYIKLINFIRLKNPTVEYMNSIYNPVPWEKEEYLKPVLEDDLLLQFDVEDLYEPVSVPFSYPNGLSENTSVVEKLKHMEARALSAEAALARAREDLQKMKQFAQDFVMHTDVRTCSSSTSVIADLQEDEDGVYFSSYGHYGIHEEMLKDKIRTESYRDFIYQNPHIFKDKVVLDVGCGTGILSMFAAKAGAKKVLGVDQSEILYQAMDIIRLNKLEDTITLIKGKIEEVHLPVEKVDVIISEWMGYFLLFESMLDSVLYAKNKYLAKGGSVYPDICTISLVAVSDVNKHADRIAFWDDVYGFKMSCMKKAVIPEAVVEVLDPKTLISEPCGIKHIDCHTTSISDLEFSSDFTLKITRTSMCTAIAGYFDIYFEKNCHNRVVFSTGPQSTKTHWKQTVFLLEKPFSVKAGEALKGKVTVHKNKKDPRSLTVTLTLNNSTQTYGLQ
Chain of EZH1 (EZH1/EED/SUZ12/RBAP48/AEBP2) (Q92800 whole entry): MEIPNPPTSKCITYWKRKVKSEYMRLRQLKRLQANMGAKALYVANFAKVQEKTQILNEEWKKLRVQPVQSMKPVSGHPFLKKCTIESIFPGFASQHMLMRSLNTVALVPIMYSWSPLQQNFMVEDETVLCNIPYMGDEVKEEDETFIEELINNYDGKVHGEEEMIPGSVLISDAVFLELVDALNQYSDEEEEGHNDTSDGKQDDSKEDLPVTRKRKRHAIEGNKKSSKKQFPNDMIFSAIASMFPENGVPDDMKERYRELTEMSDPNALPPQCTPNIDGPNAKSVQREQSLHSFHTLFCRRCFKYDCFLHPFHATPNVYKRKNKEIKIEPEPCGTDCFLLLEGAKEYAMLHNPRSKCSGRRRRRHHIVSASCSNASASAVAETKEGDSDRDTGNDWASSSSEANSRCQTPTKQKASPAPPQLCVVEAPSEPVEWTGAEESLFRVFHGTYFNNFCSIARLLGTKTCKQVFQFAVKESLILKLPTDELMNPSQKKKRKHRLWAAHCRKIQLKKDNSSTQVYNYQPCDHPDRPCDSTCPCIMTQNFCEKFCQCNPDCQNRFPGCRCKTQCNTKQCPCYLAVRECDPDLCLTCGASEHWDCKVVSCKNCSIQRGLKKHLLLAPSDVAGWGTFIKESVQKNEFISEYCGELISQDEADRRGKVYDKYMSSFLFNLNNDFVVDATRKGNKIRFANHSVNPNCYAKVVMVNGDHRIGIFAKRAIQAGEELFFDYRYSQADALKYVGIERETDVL
Chain of EZH1 (EZH1/EED/SUZ12/RBAP48/AEBP2) (O75530 whole entry): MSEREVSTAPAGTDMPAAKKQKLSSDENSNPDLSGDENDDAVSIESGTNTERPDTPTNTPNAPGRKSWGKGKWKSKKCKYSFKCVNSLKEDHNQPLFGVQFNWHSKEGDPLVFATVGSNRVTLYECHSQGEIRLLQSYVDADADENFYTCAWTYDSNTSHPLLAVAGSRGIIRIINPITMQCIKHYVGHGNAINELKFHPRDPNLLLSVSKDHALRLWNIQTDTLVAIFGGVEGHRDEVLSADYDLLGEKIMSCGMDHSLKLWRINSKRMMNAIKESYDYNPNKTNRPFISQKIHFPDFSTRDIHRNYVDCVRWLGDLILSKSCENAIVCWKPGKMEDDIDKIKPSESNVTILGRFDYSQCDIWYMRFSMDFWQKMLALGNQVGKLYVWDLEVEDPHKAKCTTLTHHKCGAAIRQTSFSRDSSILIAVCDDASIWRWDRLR
Chain of EZH1 (EZH1/EED/SUZ12/RBAP48/AEBP2) (Q15022 whole entry partner): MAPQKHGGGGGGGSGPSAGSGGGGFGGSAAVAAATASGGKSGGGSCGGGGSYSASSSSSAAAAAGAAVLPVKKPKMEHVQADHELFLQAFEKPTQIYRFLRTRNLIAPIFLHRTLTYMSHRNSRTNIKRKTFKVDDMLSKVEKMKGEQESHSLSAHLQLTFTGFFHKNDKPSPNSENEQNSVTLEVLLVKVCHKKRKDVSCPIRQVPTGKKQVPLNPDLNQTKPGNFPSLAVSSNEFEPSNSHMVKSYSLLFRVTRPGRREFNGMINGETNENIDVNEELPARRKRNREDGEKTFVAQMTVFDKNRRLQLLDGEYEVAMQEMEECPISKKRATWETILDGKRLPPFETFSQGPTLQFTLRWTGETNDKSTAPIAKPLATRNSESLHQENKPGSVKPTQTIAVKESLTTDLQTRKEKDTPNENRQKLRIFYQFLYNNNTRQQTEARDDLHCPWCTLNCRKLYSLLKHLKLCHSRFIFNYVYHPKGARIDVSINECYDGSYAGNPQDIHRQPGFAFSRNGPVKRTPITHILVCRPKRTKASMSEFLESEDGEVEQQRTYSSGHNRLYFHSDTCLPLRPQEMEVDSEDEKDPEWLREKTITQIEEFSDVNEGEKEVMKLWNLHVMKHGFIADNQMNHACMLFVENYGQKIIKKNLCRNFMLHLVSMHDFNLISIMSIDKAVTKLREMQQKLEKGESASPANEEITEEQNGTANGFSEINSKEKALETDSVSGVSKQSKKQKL
Chain of EZH1 (EZH1/EED/SUZ12/RBAP48/AEBP2) (Q09028 whole entry partner): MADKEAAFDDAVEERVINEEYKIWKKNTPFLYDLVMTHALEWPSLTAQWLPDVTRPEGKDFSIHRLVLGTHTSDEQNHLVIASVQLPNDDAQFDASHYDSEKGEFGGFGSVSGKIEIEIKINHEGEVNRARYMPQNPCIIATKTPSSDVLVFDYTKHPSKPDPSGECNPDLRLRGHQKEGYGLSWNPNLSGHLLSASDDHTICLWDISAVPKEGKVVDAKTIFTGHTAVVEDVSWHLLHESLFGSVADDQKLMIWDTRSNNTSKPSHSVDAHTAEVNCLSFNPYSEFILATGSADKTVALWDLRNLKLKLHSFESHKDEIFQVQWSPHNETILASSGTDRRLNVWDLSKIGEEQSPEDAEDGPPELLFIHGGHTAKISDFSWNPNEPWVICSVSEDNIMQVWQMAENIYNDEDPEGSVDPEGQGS
Chain of EZH1 (EZH1/EED/SUZ12/RBAP48/AEBP2) (Q6ZN18 whole entry partner): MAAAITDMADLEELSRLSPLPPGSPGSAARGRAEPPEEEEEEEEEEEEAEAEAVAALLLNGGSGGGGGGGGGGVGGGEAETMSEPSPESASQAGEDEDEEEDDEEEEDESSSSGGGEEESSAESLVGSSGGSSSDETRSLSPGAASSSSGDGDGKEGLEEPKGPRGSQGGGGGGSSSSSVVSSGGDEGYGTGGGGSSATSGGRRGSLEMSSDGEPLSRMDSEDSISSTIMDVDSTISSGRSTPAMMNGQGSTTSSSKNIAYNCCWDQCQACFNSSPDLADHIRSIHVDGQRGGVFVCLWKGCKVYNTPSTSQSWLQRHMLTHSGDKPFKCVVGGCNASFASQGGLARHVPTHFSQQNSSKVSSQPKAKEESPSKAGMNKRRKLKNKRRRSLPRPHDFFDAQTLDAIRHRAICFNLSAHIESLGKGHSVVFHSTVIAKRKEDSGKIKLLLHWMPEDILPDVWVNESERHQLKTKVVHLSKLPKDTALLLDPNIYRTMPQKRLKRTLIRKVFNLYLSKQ

Row | Compound | IC50 [1] | IC50 [2] | IC50 [3] | IC50 [4] | IC50 [5] | IC50 [6]
1 | N#Cc1c2c(c3nncn3c1NCc1ccco1)CN(Cc1ccccc1)CC2 [EED162] | 5.1 µM | > 100 µM | > 100 µM | > 100 µM | > 100 µM | > 100 µM
2 | COc1cccc(CC2CC3Cc4c(cccc4OC)CC3N(C)C2)c1 (stereo not shown) [EED210] |  | > 100 µM | > 100 µM | > 100 µM | > 100 µM | > 100 µM
3 | COc1cc(-c2cc3n(c(=N)c2C#N)CCc2cc4c(cc2-3)OCO4)ccc1OC(C)C [EED396] | 70 µM | > 100 µM | > 100 µM | > 100 µM | > 100 µM | > 100 µM
4 | Cc1cc(C)n(-c2cc(N3CCc4ccccc4C3)ccc2[N+](=O)[O-])n1 [EED666] | 66 µM | > 100 µM | > 100 µM | > 100 µM | > 100 µM | > 100 µM
5 | COc1ccccc1CN1CC(c2cn(C)c3ccccc23)C(N(C)C)C1 (stereo not shown) [EED709] |  | > 100 µM | > 100 µM | > 100 µM | > 100 µM | > 100 µM
